From PubChem BioAssay AID1963960 (Molecular Pharmacology Branch, DTP, NCI, 2024)

Test system: MDA-MB-468 spheroids with HUVEC/MSC, viability
Experiment: Anticancer human tumor MDA-MB-468 cell line growth inhibition [PI3K];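 also: spheroids exposed to agents for seven days before readout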;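 as to viability, T/C: 100% = DMSO vehicle control viability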
Conditions: for IC50: curve of first compound; for viability, T/C: stronger effect = lower value
Outline: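 Agents were dosed from a top concentration near clinical Cmax (otherwise 10 microM) in half-log decrements, alone or combined with PI3K inhibitors. The spheroids contain tumor cells plus endothelial (HUVEC) and MSC stroma; viability is measured.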

[1] = second compound 0.0316 µM, first compound 0.0316 µM
[2] = second compound 0.0316 µM, first compound 0.1 µM
[3] = second compound 0.0316 µM, first compound 0.316 µM
[4] = second compound 0.0316 µM, first compound 1 µM
[5] = second compound 0.0316 µM, first compound 3.16 µM
[6] = second compound 0.0316 µM, first compound 10 µM
[7] = second compound 0.1 µM, first compound 0.0316 µM
[8] = second compound 0.1 µM, first compound 0.1 µM
[9] = second compound 0.1 µM, first compound 0.316 µM
[10] = second compound 0.1 µM, first compound 1 µM
[11] = second compound 0.1 µM, first compound 3.16 µM
[12] = second compound 0.1 µM, first compound 10 µM
[13] = second compound 0.316 µM, first compound 0.0316 µM
[14] = second compound 0.316 µM, first compound 0.1 µM
[15] = second compound 0.316 µM, first compound 0.316 µM
[16] = second compound 0.316 µM, first compound 1 µM
[17] = second compound 0.316 µM, first compound 3.16 µM
[18] = second compound 0.316 µM, first compound 10 µM
[19] = second compound 1 µM, first compound 0.0316 µM
[20] = second compound 1 µM, first compound 0.1 µM
[21] = second compound 1 µM, first compound 0.316 µM
[22] = second compound 1 µM, first compound 1 µM
[23] = second compound 1 µM, first compound 3.16 µM
[24] = second compound 1 µM, first compound 10 µM
[25] = second compound 3.16 µM, first compound 0.0316 µM
[26] = second compound 3.16 µM, first compound 0.1 µM
[27] = second compound 3.16 µM, first compound 0.316 µM
[28] = second compound 3.16 µM, first compound 1 µM
[29] = second compound 3.16 µM, first compound 3.16 µM
[30] = second compound 3.16 µM, first compound 10 µM
[31] = second compound 10 µM, first compound 0.0316 µM
[32] = second compound 10 µM, first compound 0.1 µM
[33] = second compound 10 µM, first compound 0.316 µM
[34] = second compound 10 µM, first compound 1 µM
[35] = second compound 10 µM, first compound 3.16 µM
[36] = second compound 10 µM, first compound 10 µM

C[C@@H](NC(=O)c1ncnc(N)c1Cl)c1ncc(C(=O)Nc2cc(C(F)(F)F)c(Cl)cn2)s1 + Cc1nc(NC(=O)N2CCCC2C(N)=O)sc1-c1ccnc(C(C)(C)C(F)(F)F)c1
IC50 (second compound 0.0316 µM): > 10000 nM
IC50 (second compound 0.1 µM): > 10000 nM
IC50 (second compound 0.316 µM): > 10000 nM
IC50 (second compound 1 µM): > 10000 nM
IC50 (second compound 3.16 µM): 9150 nM
IC50 (second compound 10 µM): < 31.6 nM
viability, T/C [1]: 75.5%
viability, T/C [2]: 109%
viability, T/C [3]: 85.4%
viability, T/C [4]: 117%
viability, T/C [5]: 89.7%
viability, T/C [6]: 82.8%
viability, T/C [7]: 88.4%
viability, T/C [8]: 89.2%
viability, T/C [9]: 86.4%
viability, T/C [10]: 119%
viability, T/C [11]: 95%
viability, T/C [12]: 85.2%
viability, T/C [13]: 107%
viability, T/C [14]: 92.2%
viability, T/C [15]: 78.8%
viability, T/C [16]: 98.3%
viability, T/C [17]: 85.3%
viability, T/C [18]: 68.6%
viability, T/C [19]: 91.9%
viability, T/C [20]: 71.8%
viability, T/C [21]: 72.7%
viability, T/C [22]: 75.7%
viability, T/C [23]: 69.1%
viability, T/C [24]: 61.6%
viability, T/C [25]: 84.7%
viability, T/C [26]: 59.2%
viability, T/C [27]: 74.8%
viability, T/C [28]: 61.4%
viability, T/C [29]: 59.3%
viability, T/C [30]: 46.8%
viability, T/C [31]: 40.2%
viability, T/C [32]: 31.9%
viability, T/C [33]: 39.3%
viability, T/C [34]: 35.4%
viability, T/C [35]: 34%
viability, T/C [36]: 17.1%

Cn1ncc(Cl)c1-c1cc(C(=O)NC(CN)Cc2cccc(F)c2)sc1Cl (stereo unspecified) + Cc1nc(NC(=O)N2CCCC2C(N)=O)sc1-c1ccnc(C(C)(C)C(F)(F)F)c1
IC50 (second compound 0.0316 µM): 327 nM
IC50 (second compound 0.1 µM): 272 nM
IC50 (second compound 0.316 µM): 289 nM
IC50 (second compound 1 µM): 221 nM
IC50 (second compound 3.16 µM): 89.5 nM
IC50 (second compound 10 µM): < 31.6 nM
viability, T/C [1]: 84.6%
viability, T/C [2]: 78.8%
viability, T/C [3]: 37.8%
viability, T/C [4]: 33.1%
viability, T/C [5]: 29.8%
viability, T/C [6]: 0.69%
viability, T/C [7]: 78.1%
viability, T/C [8]: 62.4%
viability, T/C [9]: 41.2%
viability, T/C [10]: 36%
viability, T/C [11]: 27.5%
viability, T/C [12]: 1.98%
viability, T/C [13]: 80.2%
viability, T/C [14]: 76.9%
viability, T/C [15]: 40.1%
viability, T/C [16]: 30.1%
viability, T/C [17]: 19.7%
viability, T/C [18]: 3.34%
viability, T/C [19]: 91.3%
viability, T/C [20]: 68%
viability, T/C [21]: 39.3%
viability, T/C [22]: 26.1%
viability, T/C [23]: 19.3%
viability, T/C [24]: 4.09%
viability, T/C [25]: 66.7%
viability, T/C [26]: 43.6%
viability, T/C [27]: 37.4%
viability, T/C [28]: 20.8%
viability, T/C [29]: 14.1%
viability, T/C [30]: 2.32%
viability, T/C [31]: 38.3%
viability, T/C [32]: 20.8%
viability, T/C [33]: 20.6%
viability, T/C [34]: 14.1%
viability, T/C [35]: 7.72%
viability, T/C [36]: 0.4%

Cn1ncnc1[C@H]1c2n[nH]c(=O)c3cc(F)cc(c23)N[C@@H]1c1ccc(F)cc1 + Cc1nc(NC(=O)N2CCCC2C(N)=O)sc1-c1ccnc(C(C)(C)C(F)(F)F)c1
IC50 (second compound 0.0316 µM): > 100 nM
IC50 (second compound 0.1 µM): 66.5 nM
IC50 (second compound 0.316 µM): 42.9 nM
IC50 (second compound 1 µM): 24.4 nM
IC50 (second compound 3.16 µM): 4.2 nM
IC50 (second compound 10 µM): < 0.316 nM
viability, T/C (second compound 0.0316 µM, first compound 0.000316 µM): 88.3%
viability, T/C (second compound 0.0316 µM, first compound 0.001 µM): 79.8%
viability, T/C (second compound 0.0316 µM, first compound 0.00316 µM): 84.7%
viability, T/C (second compound 0.0316 µM, first compound 0.01 µM): 98.3%
viability, T/C [1]: 84%
viability, T/C [2]: 56.3%
viability, T/C (second compound 0.1 µM, first compound 0.000316 µM): 80.2%
viability, T/C (second compound 0.1 µM, first compound 0.001 µM): 93.7%
viability, T/C (second compound 0.1 µM, first compound 0.00316 µM): 81.9%
viability, T/C (second compound 0.1 µM, first compound 0.01 µM): 93%
viability, T/C [7]: 62.7%
viability, T/C [8]: 43%
viability, T/C (second compound 0.316 µM, first compound 0.000316 µM): 88%
viability, T/C (second compound 0.316 µM, first compound 0.001 µM): 76.6%
viability, T/C (second compound 0.316 µM, first compound 0.00316 µM): 83.7%
viability, T/C (second compound 0.316 µM, first compound 0.01 µM): 79.6%
viability, T/C [13]: 52.5%
viability, T/C [14]: 43%
viability, T/C (second compound 1 µM, first compound 0.000316 µM): 94.2%
viability, T/C (second compound 1 µM, first compound 0.001 µM): 78%
viability, T/C (second compound 1 µM, first compound 0.00316 µM): 62.9%
viability, T/C (second compound 1 µM, first compound 0.01 µM): 62%
viability, T/C [19]: 46.1%
viability, T/C [20]: 41.4%
viability, T/C (second compound 3.16 µM, first compound 0.000316 µM): 64.7%
viability, T/C (second compound 3.16 µM, first compound 0.001 µM): 60%
viability, T/C (second compound 3.16 µM, first compound 0.00316 µM): 50.4%
viability, T/C (second compound 3.16 µM, first compound 0.01 µM): 46.7%
viability, T/C [25]: 37.6%
viability, T/C [26]: 36.2%
viability, T/C (second compound 10 µM, first compound 0.000316 µM): 35.2%
viability, T/C (second compound 10 µM, first compound 0.001 µM): 25.9%
viability, T/C (second compound 10 µM, first compound 0.00316 µM): 31.2%
viability, T/C (second compound 10 µM, first compound 0.01 µM): 26.9%
viability, T/C [31]: 20.3%
viability, T/C [32]: 18.5%
